# Peptide text beside a SMILES is read from it.
# Columns and labels:
# [1] = system: mammalian plasma and tissue peptidases
# [2] = in vivo
hydrolysis by mammalian plasma and tissue peptidases [1],half life [2] [h],SMILES
resist rapid hydrolysis,≥ 6,N[C@H](Cc1ccccc1)C(=O)N[C@H](Cc1ccccc1)C(=O)O [D-phenylalanyl-D-phenylalanine] (HELM PEPTIDE1{[dF].[dF]}$$$$V2.0)
resist rapid hydrolysis,≥ 6,N[C@H](Cc1ccccc1)C(=O)N[C@H](Cc1c[nH]c2ccccc12)C(=O)O [D-phenylalanyl-D-tryptophan] (HELM PEPTIDE1{[dF].[dW]}$$$$V2.0)
resist rapid hydrolysis,≥ 6,N[C@H](Cc1c[nH]c2ccccc12)C(=O)N[C@H](Cc1ccccc1)C(=O)O [D-tryptophanyl-D-phenylalanine] (HELM PEPTIDE1{[dW].[dF]}$$$$V2.0)
resist rapid hydrolysis,≥ 6,N[C@H](Cc1c[nH]c2ccccc12)C(=O)N[C@H](Cc1c[nH]c2ccccc12)C(=O)O [D-tryptophanyl-D-tryptophan] (HELM PEPTIDE1{[dW].[dW]}$$$$V2.0)

# — US3965260A, “Anti-inflammatory dipeptide” (McArthur; John N., priority 1975, dated 1976)
